From patent US6858621B2, “2-(quinolonyl)-fused heterocycles as androgen receptor modulators” (Ortho-McNeil Pharmaceutical, Inc., priority 2002, dated 2005)

Target: T1, androgen receptor LBD (Panvera) (Rattus norvegicus, UniProt P15207)
T1 construct: 5 pmol androgen receptor LBD (Panvera); purchased Panvera
T1 sequence (P15207 651-882 limits assumed): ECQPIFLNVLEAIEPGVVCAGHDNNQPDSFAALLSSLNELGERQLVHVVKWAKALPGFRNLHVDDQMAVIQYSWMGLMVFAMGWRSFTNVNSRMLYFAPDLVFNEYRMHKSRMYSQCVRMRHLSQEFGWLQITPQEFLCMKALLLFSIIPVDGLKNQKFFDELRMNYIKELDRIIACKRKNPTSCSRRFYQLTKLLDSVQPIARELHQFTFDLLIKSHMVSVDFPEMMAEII
Test: Androgen Receptor Filtration Binding Assay (Panvera receptor)
Conditions: Panvera receptor data; 0.5 nM [3H] R1881 tracer
Method: In Vitro Assay—Androgen Receptor Filtration Binding Assay
The assay was run on a 96 well plate with each well filled with total reaction volume 150 μL, of a solution containing 5 pmol androgen receptor LBD (Panvera) or […] of freshly prepared rat cytosol, 0.5 nM [^3H] R1881 tracer (NEN), 1.5 μL (10 μM) test compound or vehicle (diluted in 30% DMSO, final concentration of DMSO 0.75%) and […] of TED buffer. (TED buffer contains 10 mM Tris.HCl pH 7.4, 1 mM sodium molybdate (60 mg/250 mL), 1.5 mM EDTA, 1 mM DTT and 10% (v/v) glycerol.)
On day one, the solution containing receptor, tracer and TED buffer was distributed onto a 96 well plate. Diluted test compound or control vehicle was then added to individual wells and the plate incubated ay 4° C. overnight.
On day two, to each well was then added 20 μL human γ-globulin (ICN 823102), prepared at 25 mg/ml in TE pH 8.0 and 55 μL 40% polyethylene glycol 8000 (J T Baker U222-08), prepared in TE pH 8.0. […] The plate wells were then counted on a TopCount (Packard).
Representative compounds of the present invention were tested for binding to the androgen receptor according to the procedure described above with results as listed in Table 3. % Inhibition values less that 0% indicate no binding at the […] level. The negative number(s) are a result of experimental error from the low number of counts detected.

Row | SMILES | IC50
1 | O=c1cc(C(F)(F)F)c2c3c(ccc2[nH]1)OCCO3 [compound 1] | 5.2 µM
2 | O=c1cc(C(F)(F)F)c2c3c(ccc2[nH]1)OC(F)(F)C(F)(F)O3 [compound 2] | 4.8 µM
